Results taken from ChEMBL document CHEMBL1649169, “Multiresistance in Pasteurella multocida is mediated by coexistence of small plasmids” (2009).
Values after ≈ are worked out from the molar mass of the structure shown.

Legend:
Assay type in all cases: functional
Pasteurella multocida [1] = experiment: Antibacterial activity against Pasteurella multocida ATCC 43137 by CLSI M31-A3 broth microdilution method
Pasteurella multocida [2] = experiment: Antibacterial activity against Pasteurella multocida BB1034 harboring plasmid pB1000 bearing blaROB-1 gene and plasmid pB1001 bearing tetB gene by CLSI M31-A3 broth microdilution method
Pasteurella multocida [3] = experiment: Antibacterial activity against Pasteurella multocida BB1035 harboring plasmid pB1000 bearing blaROB-1 gene and plasmid pB1005 bearing strA, sul2 genes by CLSI M31-A3 broth microdilution method
Pasteurella multocida [4] = experiment: Antibacterial activity against Pasteurella multocida BB1036 harboring plasmid pB1000 bearing blaROB-1 gene and plasmid pB1005 bearing strA, sul2 genes by CLSI M31-A3 broth microdilution method
Pasteurella multocida [5] = experiment: Antibacterial activity against Pasteurella multocida BB1037 harboring plasmid pB1000 bearing blaROB-1 gene and plasmid pB1005 bearing strA, sul2 genes by CLSI M31-A3 broth microdilution method
Pasteurella multocida [6] = experiment: Antibacterial activity against Pasteurella multocida BB1038 harboring plasmid pB1000 bearing blaROB-1 gene and plasmid pB1005 bearing strA, sul2 genes by CLSI M31-A3 broth microdilution method
Pasteurella multocida [7] = experiment: Antibacterial activity against Pasteurella multocida BB1039 harboring plasmid pB1000 bearing blaROB-1 gene and plasmid pB9956 bearing tetH gene by CLSI M31-A3 broth microdilution method
Pasteurella multocida [8] = experiment: Antibacterial activity against Pasteurella multocida BB1040 harboring plasmid pB1000 bearing blaROB-1 gene and plasmid pB9956 bearing tetH gene by CLSI M31-A3 broth microdilution method
Pasteurella multocida [9] = experiment: Antibacterial activity against Pasteurella multocida BB1041 harboring plasmid pB1000 bearing blaROB-1 gene and plasmid pB9956 bearing tetH gene by CLSI M31-A3 broth microdilution method
Pasteurella multocida [10] = experiment: Antibacterial activity against Pasteurella multocida BB1042 harboring plasmid pB1000 bearing blaROB-1 gene and plasmid pB9956 bearing tetH gene by CLSI M31-A3 broth microdilution method
Pasteurella multocida [11] = experiment: Antibacterial activity against Pasteurella multocida BB1043 harboring plasmid pB1000 bearing blaROB-1 gene and plasmid pB9956 bearing tetH gene by CLSI M31-A3 broth microdilution method
Pasteurella multocida [12] = experiment: Antibacterial activity against Pasteurella multocida BB1044 harboring plasmid pB1000 bearing blaROB-1 gene, plasmid 1006 bearing tetO gene and plasmid pB1005 bearing strA, sul2 genes by CLSI M31-A3 broth microdilution method
Pasteurella multocida [13] = experiment: Antibacterial activity against Pasteurella multocida BB1045 harboring plasmid pB1000 bearing blaROB-1 gene and plasmid pB9956 bearing tetH gene by CLSI M31-A3 broth microdilution method
Pasteurella multocida [14] = experiment: Antibacterial activity against Pasteurella multocida BB1046 harboring plasmid pB1003 bearing blaROB-1 gene and plasmid pB1002 bearing strA, sul2 genes by CLSI M31-A3 broth microdilution method

Compound	MIC (Pasteurella multocida [1])	MIC (Pasteurella multocida [2])	MIC (Pasteurella multocida [3])	MIC (Pasteurella multocida [4])	MIC (Pasteurella multocida [5])	MIC (Pasteurella multocida [6])	MIC (Pasteurella multocida [7])	MIC (Pasteurella multocida [8])	MIC (Pasteurella multocida [9])	MIC (Pasteurella multocida [10])	MIC (Pasteurella multocida [11])	MIC (Pasteurella multocida [12])	MIC (Pasteurella multocida [13])	MIC (Pasteurella multocida [14])
CN(C)[C@@H]1C(O)=C(C(N)=O)C(=O)[C@@]2(O)C(O)=C3C(=O)c4c(O)cccc4[C@@](C)(O)[C@H]3C[C@@H]12 [TETRACYCLINE]	2 µg/mL (≈ 4.5 µM)	16 µg/mL (≈ 36 µM)	2 µg/mL (≈ 4.5 µM)	2 µg/mL (≈ 4.5 µM)	2 µg/mL (≈ 4.5 µM)	2 µg/mL (≈ 4.5 µM)	32 µg/mL (≈ 72 µM)	32 µg/mL (≈ 72 µM)	32 µg/mL (≈ 72 µM)	32 µg/mL (≈ 72 µM)	32 µg/mL (≈ 72 µM)	32 µg/mL (≈ 72 µM)	32 µg/mL (≈ 72 µM)	1 µg/mL (≈ 2.25 µM)
Cc1cc(NS(=O)(=O)c2ccc(N)cc2)no1 [SULFAMETHOXAZOLE]	> 256 µg/mL	> 256 µg/mL	> 256 µg/mL	> 256 µg/mL	> 256 µg/mL	> 256 µg/mL	> 256 µg/mL	> 256 µg/mL	> 256 µg/mL	> 256 µg/mL	> 256 µg/mL	> 256 µg/mL	> 256 µg/mL	> 256 µg/mL
N[C@@H](C(=O)N[C@@H]1C(=O)N2C(C(=O)O)=C(Cl)CS[C@H]12)c1ccccc1 [CEFACLOR ANHYDROUS]	≤ 1 µg/mL	> 16 µg/mL	> 16 µg/mL	> 16 µg/mL	> 16 µg/mL	> 16 µg/mL	> 16 µg/mL	> 16 µg/mL	> 16 µg/mL	> 16 µg/mL	> 16 µg/mL	> 16 µg/mL	> 16 µg/mL	> 16 µg/mL
CO/N=C(\C(=O)N[C@@H]1C(=O)N2C(C(=O)O)=C(COC(C)=O)CS[C@H]12)c1csc(N)n1 [CEFOTAXIME]	≤ 0.06 µg/mL	1 µg/mL (≈ 2.2 µM)	0.5 µg/mL (≈ 1.1 µM)	1 µg/mL (≈ 2.2 µM)	1 µg/mL (≈ 2.2 µM)	1 µg/mL (≈ 2.2 µM)	1 µg/mL (≈ 2.2 µM)	1 µg/mL (≈ 2.2 µM)	1 µg/mL (≈ 2.2 µM)	1 µg/mL (≈ 2.2 µM)	1 µg/mL (≈ 2.2 µM)	1 µg/mL (≈ 2.2 µM)	1 µg/mL (≈ 2.2 µM)	0.5 µg/mL (≈ 1.1 µM)
CC1(C)S[C@@H]2[C@H](NC(=O)Cc3ccccc3)C(=O)N2[C@H]1C(=O)O [PENICILLIN G]	≤ 0.03 µg/mL	> 16 µg/mL	> 16 µg/mL	> 16 µg/mL	> 16 µg/mL	> 16 µg/mL	> 16 µg/mL	> 16 µg/mL	> 16 µg/mL	> 16 µg/mL	> 16 µg/mL	> 16 µg/mL	> 16 µg/mL	> 16 µg/mL
CN[C@@H]1[C@H](O[C@H]2[C@H](O[C@H]3[C@H](O)[C@@H](O)[C@H](N=C(N)N)[C@@H](O)[C@@H]3N=C(N)N)O[C@@H](C)[C@]2(O)C=O)O[C@@H](CO)[C@H](O)[C@H]1O [STREPTOMYCIN]	8 µg/mL (≈ 13.8 µM)	32 µg/mL (≈ 55 µM)	> 256 µg/mL	> 256 µg/mL	> 256 µg/mL	> 256 µg/mL	8 µg/mL (≈ 13.8 µM)	16 µg/mL (≈ 27.5 µM)	16 µg/mL (≈ 27.5 µM)	8 µg/mL (≈ 13.8 µM)	8 µg/mL (≈ 13.8 µM)	> 256 µg/mL	16 µg/mL (≈ 27.5 µM)	> 256 µg/mL
CC1(C)S[C@@H]2[C@H](NC(=O)[C@H](N)c3ccc(O)cc3)C(=O)N2[C@H]1C(=O)O [AMOXICILLIN]	≤ 1 µg/mL	> 256 µg/mL	> 256 µg/mL	> 256 µg/mL	> 256 µg/mL	> 256 µg/mL	> 256 µg/mL	> 256 µg/mL	> 256 µg/mL	> 256 µg/mL	> 256 µg/mL	> 256 µg/mL	> 256 µg/mL	> 256 µg/mL
